Experiments:
[1] = system: anti-peptide IgG in plasma; assay: Test Example 4: peptide-specific IgG titer pre and post vaccination, bead-based multiplexed Luminex assay; type: in vivo, human; conditions: for Pre-vaccination IgG Negative (number of patients) / Pre-vaccination IgG Positive (number of patients): cut off 10 FIU; for Post vaccination IgG: number of (positive) patients among vaccinated: positive IgG response; for Pre-vaccination IgG Negative patients: number of 2,588 patients below 10 FIU; for Pre-vaccination IgG Positive patients: number of 2,588 patients with ≥10 FIU; for Post vaccination IgG: (positive) patients: number of vaccinated patients with positive IgG response; for Correlation between immune responses and OS: Negative (mOS): patients with negative post-vaccination IgG response to the peptide; for Correlation between immune responses and OS: Positive (mOS): patients with positive post-vaccination IgG response to the peptide
Procedure: As described previously, IgG titer specific to the antigen peptides in plasma was measured by bead-based multiplexed Luminex assay (Luminex, Austin, Tex.) before and after vaccination, i.e., at the end of each cycle or at the end of the clinical trial (Non-Patent Literature 4). In brief, 30 mL of peripheral blood was obtained before and after vaccination. Plasma was incubated with 100 μL of peptide-coupled color-coded beads for 2 hours at 25° C. on a plate shaker. After the incubation, the resultant mixture was washed with a vacuum manifold apparatus and incubated with 100 μL of biotinylated goat anti-human IgG (gamma chain-specific; Vector Laboratories, Burlingame, Calif.) for 1 hour at 25° C. on a plate shaker. The plate was then washed, followed by addition of 100 μL of streptavidin-PE (Life Technologies) to each well, and incubation for 30 minutes at 25° C. on a plate shaker. The resultant beads were washed 4 times, followed by addition of 100 μL of Tween-PBS to each well, and detection of fluorescence intensity units (FIU) on the beads using the Luminex system. The cutoff values of anti-peptide IgG were set to 10 FIU in 100-fold diluted samples.
Pre-vaccination peptide-specific IgG titers to 31 peptides were measured using a Luminex system. As a detectable IgG level, 10 FIU was employed as the cut off level, as reported previously (Noguchi M, et al., Cancer Immunol Immunother. 2013 May; 62(5): 919-29; Sasada T, et al., Current Medicinal Chemistry. 21: 2332-2345, 2014; Kibe S, et al., Cancer Immunology Research 2014; 2(12): 1154-62).
Post-vaccination lgG titers were measured at the ends of the first cycle and the second cycle.

cancer patients = assay: Test Example 4: correlation between vaccination with individual peptides (or peptide sets) and OS, Cox proportional hazards regression; type: in vivo, human; conditions: for HR: Cox proportional hazards regression, OS; for Correlation between immune responses and OS: Negative (mOS) / Correlation between immune responses and OS: Positive (mOS): Table 20, <64% neutrophil and ≥26% lymphocyte; for Correlation between immune responses and OS: Negative (mOS): vaccinated patients with negative IgG response; for Correlation between immune responses and OS: Positive (mOS): vaccinated patients with positive IgG response
Procedure: The Student's t-test and the chi-square test were used to compare quantitative and categorical variables, respectively. OS was calculated as the time in months from the date of clinical trial enrollment to death or to the date of last contact. Time-to-event endpoints were analyzed using the Kaplan-Meier method, and between-group comparison for OS was conducted using the log-rank test. Clinical efficacy of the individual peptides for OS was evaluated by univariate and multivariate analyses with the Cox proportional hazards regression model, and HR and 95% CI were calculated. All reported p-values were two-sided, and p-values less than 0.05 were considered significant. JMP version 12 or SAS version 9.4 software (SAS Institute Inc., Cary, N.C.) was used to perform all analyses.
Correlation levels of the 31 peptides for OS were evaluated by the Cox proportional hazards regression model.
Similarly, in the 2,085 advanced cancer patients (stage IV+recurrence) and the 503 non-advanced cancer patients (I-III stages) correlation levels of the 31 peptides for OS were evaluated by the Cox proportional hazards regression model. […]

[2] = Table 20, patients showing both <64% neutrophil and ≥26% lymphocyte
[3] = patients showing detectable levels
[4] = patients showing positive responses
[5] = Table 18, all 2,588 cases, vaccinated vs non-vaccinated
[6] = Table 18, all 2,588 cases, median OS of patients under PPV containing the peptide
[7] = Table 18, all 2,588 cases, median OS of patients under PPV not containing the peptide
[8] = Table 19, 2,085 advanced cancer patients (stage IV+recurrence)
[9] = Table 19, 2,085 advanced cancer patients (stage IV+recurrence), PPV containing the peptide
[10] = Table 19, 2,085 advanced cancer patients (stage IV+recurrence), PPV not containing the peptide
[11] = Table 21, patients showing both <64% neutrophil and ≥26% lymphocyte
[12] = Table 21, patients showing both <64% neutrophil and ≥26% lymphocyte, PPV containing the peptide
[13] = Table 21, patients showing both <64% neutrophil and ≥26% lymphocyte, PPV not containing the peptide
[14] = 2,085 advanced cancer patients (stage IV+recurrence)

Row | Sequence | Post vaccination IgG Median (FIU) [1, 2] | Pre-vaccination IgG Median (FIU) [1, 2] [FIU] | Pre-vaccination IgG Negative (number of patients) [1, 2] | Pre-vaccination IgG Positive (number of patients) [1, 2] | Post vaccination IgG: number of (positive) patients among vaccinated [1, 2] | Pre-vaccination IgG Negative patients [1] | Pre-vaccination IgG Positive patients [1] | Post vaccination IgG: (positive) patients [1] | Pre-vaccination IgG Median (FIU) [1, 3] [FIU] | Post vaccination IgG Median (FIU) [1, 4] | Correlation between immune responses and OS: Negative (mOS) [1] [months] | Correlation between immune responses and OS: Positive (mOS) [1] [months] | HR (cancer patients; [5]) | Vaccinate cases (mOS) (cancer patients; [6]) | Non-vaccinate cases (mOS) (cancer patients; [7]) | HR (cancer patients; [8]) | Vaccinate cases (mOS) (cancer patients; [9]) | Non-vaccinate cases (mOS) (cancer patients; [10]) | Correlation between immune responses and OS: Negative (mOS) (cancer patients) [months] | Correlation between immune responses and OS: Positive (mOS) (cancer patients) [months] | also measured
1 | DYSARWNEI (listed as Homo sapiens) [SART2-93] | 8,633 FIU | 64 | 141 | 925 | 467(183) | 340 | 2,248 | 1137(362) | 66 | 3,435 FIU | 12.3 | 21.7 | 0.9 | 1,137(12.3) M | 413(11.5) M | 1.0 | 906(10.7) M | 340(10.2) M | 17.3 | 24.7 | positive rate of patients showing ≥10 FIU, pre-vaccination peptide-specific IgG ([1]; 2,588 patients, pre-vaccination): 87%; HR (cancer patients; [11]): 1.0; Vaccinate cases (mOS) (cancer patients; [12]): 467(19.0) M; Non-vaccinate cases (mOS) (cancer patients; [13]): 158(17.6) M
2 | DYVREHKDNI (listed as Homo sapiens) [EGFR-800] | 746 FIU | 32 | 431 | 635 | 176(79) | 1,046 | 1,542 | 390(156) | 30 | 715 FIU | 12.4 | 24.3 | 0.8 | 390(14.3) M | 1,160(11.1) M | 0.8 | 299(13.1) M | 947(9.6) M | 17.1 | 27.5 | median OS of non-vaccinated cases (cancer patients; [14]): 9.6 months; median OS of vaccinated cases (cancer patients; [14]): 13.1 months; HR (cancer patients; [11]): 0.9; Vaccinate cases (mOS) (cancer patients; [12]): 176(21.2) M; Non-vaccinate cases (mOS) (cancer patients; [13]): 449(21.2) M; median OS of vaccinated cases (cancer patients; all 2,588 cases, PPV containing the peptide): 14.3 months; median OS of non-vaccinated cases (cancer patients; all 2,588 cases, PPV not containing the peptide): 11.1 months
3 | GIHKQKEKSR (listed as Homo sapiens) [PAP-248] | 1,981 FIU | 38 | 543 | 523 | 64(31) | 1,302 | 1,286 | 147(62) | 37 | 2,136 FIU | 9.9 | 21.1 | 1.0 | 147(11.4) M | 1,067(11.1) M | 0.8 | 124(10.1) M | 845(9.9) M | 13 | 21.3 | median OS of patients with the peptide vs patients without it (cancer patients; 1,066 patients with <64% neutrophil and ≥26% lymphocyte): shorter; HR (cancer patients; [11]): 1.1; Vaccinate cases (mOS) (cancer patients; [12]): 64(15.5) M; Non-vaccinate cases (mOS) (cancer patients; [13]): 443(17.6) M
4 | HYRKWIKDTI (listed as Homo sapiens) [PSA-248] | 18,191 FIU | 47 | 231 | 835 | 107(81) | 553 | 2,035 | 283(200) | 48 | 13,165 FIU | 7.0 | 20.2 | 0.9 | 283(13.8) M | 1,267(11.6) M | 0.9 | 230(13.0) M | 1016(10.2) M | 9.6 | 27.4 | HR (cancer patients; [11]): 0.9; Vaccinate cases (mOS) (cancer patients; [12]): 107(20.4) M; Non-vaccinate cases (mOS) (cancer patients; [13]): 518(17.9) M
5 | HYTNASDGL (listed as Homo sapiens) [Lck-208] | 9,551 FIU | 31 | 839 | 227 | 69(36) | 2,028 | 560 | 134(64) | 30 | 4,597 FIU | 16.0 | 30.5 | 0.9 | 134(19.7) M | 1,416(11.4) M | 0.7 | 103(17.1) M | 1143(10.0) M | 19.9 | 34 | median OS of non-vaccinated cases (cancer patients; [14]): 10 months; median OS of vaccinated cases (cancer patients; [14]): 17.1 months; HR (cancer patients; [11]): 0.7; Vaccinate cases (mOS) (cancer patients; [12]): 69(26.7) M; Non-vaccinate cases (mOS) (cancer patients; [13]): 556(17.6) M
6 | ILEQSGEWWK (listed as Homo sapiens) [Lck-90] | 4,250 FIU | 43 | 215 | 851 | 210(100) | 501 | 2,087 | 502(187) | 44 | 3,350 FIU | 10.3 | 20.9 | 1.0 | 502(11.3) M | 712(11.0) M | 1.0 | 391(10.3) M | 578(9.4) M | 12 | 26.3 | HR (cancer patients; [11]): 1.0; Vaccinate cases (mOS) (cancer patients; [12]): 210(17.8) M; Non-vaccinate cases (mOS) (cancer patients; [13]): 297(17.5) M

— patent US20220233661A1, “METHOD OF DETERMINING ELIGIBILITY OF CANCER PATIENT FOR PEPTIDE VACCINE THERAPY” (priority 2019, published 2022)
